US20240294551A1 (AMGEN INC., priority 2022, published 2024)
Like-named read-outs stand apart in the source and are kept apart here.

Assays:
[1] = molecular target: His-tagged KRAS G12D protein (Homo sapiens (Human), UniProt P01116, G12D); test: KRAS G12D TR-FRET Assay; type: binding
How it was run: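 Each incubation ran at room temperature: enzyme with compound for 30 minutes, peptide for one hour, and detection reagents (0.4 nM europium anti-6×His, 5 nM streptavidin-d2) for one hour more. Protein and peptide stocks were each diluted to 20 nM before addition.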

AsPC-1 cells = test: AsPC-1 CTG Assay (CellTiter-Glo cell viability); type: cell-based, human; details: Homo sapiens, ASPC1, 72 h, first value of the cell, read-out: G12D/C/V Cell Proliferation CTG (72 h) AsPC-1
How it was run: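 IC50 values derive from 4-parameter logistic fits of CellTiter-Glo luminescence, expressed relative to DMSO. Compound dilution series were applied to overnight-seeded AsPC-1 or SW620 cells (RPMI 1640, 10% FBS) for 72 h at 37 °C, 5% CO2.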

[2] = molecular target: GDP-bound KRAS protein (aa 1-169), containing both G12D and C118A amino acid substitutions (Homo sapiens (Human), UniProt P01116, C118A/G12D); test: KRAS G12D Coupled Nucleotide Exchange Assay; type: biochemical
MIA PaCa-2 cells = test: MIA PaCa-2 CTG Assay (CellTiter-Glo cell viability); type: cell-based, human; details: Homo sapiens, second value of the cell
How it was run: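 IC50 values come from a 4-parameter logistic fit of CellTiter-Glo luminescence, normalized to DMSO control, after 72 h compound exposure at 37° C, 5% CO2. Cells grew in RPMI 1640 plus 10% FBS and were seeded at 1.67E+04 cells/mL one night before dosing.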

[3] = system: Phosphorylation of ERK1/2 in AsPC-1 cells; test: Phospho-ERK1/2 MSD Assay; type: cell-based, human; details: Homo sapiens, ASPC1, 2 h
How it was run: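 Read-out: MSD electrochemiluminescent detection of phosphorylated ERK1/2 in whole-cell lysates, fitted to a 4-parameter logistic curve for IC50. Prior to lysis, AsPC-1 cells (25,000 per well) received a 2 h compound dose-response at 37 °C.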

[4] = read-out: KRAS G12D Binding IC50
[5] = read-out: KRAS G12D Coupled Exchange IC50
[6] = Mia PaCa-2, 72 h, read-out: G12D/C/V Cell Proliferation CTG (72 h) Mia PaCa-2
[7] = read-out: 2 h p-ERK (AsPC-1 cells), IC50
[8] = TR-FRET, read-out: KRAS G12D Binding
[9] = 2 hours compound pre-incubation, read-out: KRAS G12D Coupled Exchange
[10] = MIA PaCa-2 cells (G12C), 72 h, read-out: G12D/C/V Cell Proliferation CTG (72 h) MIA PaCa-2
[11] = read-out: 2 h p-ERK (AsPC-1 cells)

Chain of GDP-bound KRAS protein (aa 1-169), containing both G12D and C118A amino acid substitutions (P01116 other isoform, or with tags, fused parts or gaps G12D/C118A): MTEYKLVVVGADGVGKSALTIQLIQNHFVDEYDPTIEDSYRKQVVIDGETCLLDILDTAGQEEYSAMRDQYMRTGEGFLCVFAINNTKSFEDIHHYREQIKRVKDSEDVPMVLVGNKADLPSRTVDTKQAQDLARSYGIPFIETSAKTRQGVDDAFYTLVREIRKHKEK
Chain of His-tagged KRAS G12D protein (P01116 other isoform, or with tags, fused parts or gaps G12D): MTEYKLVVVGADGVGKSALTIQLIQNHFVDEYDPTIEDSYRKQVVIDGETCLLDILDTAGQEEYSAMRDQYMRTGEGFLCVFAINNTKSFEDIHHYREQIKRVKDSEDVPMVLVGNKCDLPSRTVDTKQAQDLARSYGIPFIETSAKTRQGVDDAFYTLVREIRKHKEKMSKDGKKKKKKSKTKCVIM

Row | SMILES | IC50 [1, 4] [µM] | IC50 (AsPC-1 cells; AsPC-1, 72 h) [µM] | IC50 [2, 5] [µM] | IC50 (MIA PaCa-2 cells; [6]) [µM] | IC50 [3, 7] [µM] | IC50 [1, 8] [µM] | IC50 (AsPC-1 cells; AsPC-1 cells (G12D), 72 h) [µM] | IC50 [2, 9] [µM] | IC50 (MIA PaCa-2 cells; [10]) [µM] | IC50 [3, 11] [µM]
1 | O=C1OCCCc2c(Cl)cc3[nH]ncc3c2-c2c(F)cc3c(nc(OC[C@@]45CCCN4C[C@H](F)C5)nc3c2F)N2CCOC[C@H](C2)O1 [Example 187, p-(26S)-18-chloro-9,32-difluoro-4-(((2R,7aS)-2-fluorotetrahydro-1H-pyrrolo[1,2-a]pyrrol-7a(5H)-yl)methoxy)-23,25,28-trioxa-1,3,5,14,15-pentaazahexacyclo[24.4.1.1~6,10~.0~2,7~.0~11,19~.0~12,16~]dotriaconta-2,4,6,8,10(32),11,13,16,18-nonaen-24-one] | 0.004 | 0.076 | 0.002 | 0.015 | 0.0046 | – | – | – | – | –
2 | Cc1cc2[nH]ncc2c2c1CCCOC(=O)O[C@@H]1CCCCN(C1)c1nc(OC[C@@]34CCCN3C[C@H](F)C4)nc3c(F)c-2ncc13 [Example 98, (26R)-32-fluoro-4-(((2R,7aS)-2-fluorotetrahydro-1H-pyrrolo[1,2-a]pyrrol-7a(5H)-yl)methoxy)-18-methyl-23,25-dioxa-1,3,5,9,14,15-hexaazahexacyclo[24.4.1.1~6,10~.0~2,7~.0~11,19~.0~12,16~]dotriaconta-2,4,6,8,10(32),11,13,16,18-nonaen-24-one] | 0.004 | 0.14 | 0.002 | 0.05 | 0.017 | – | – | – | – | –
3 | O=C1CCCCc2c(Cl)cc3[nH]ncc3c2-c2ncc3c(nc(OC[C@@]45CCCN4C[C@H](F)C5)nc3c2F)N2CCCC[C@H](C2)O1 [Example 82, (26R)-18-chloro-32-fluoro-4-(((2R,7aS)-2-fluorotetrahydro-1H-pyrrolo[1,2-a]pyrrol-7a(5H)-yl)methoxy)-25-oxa-1,3,5,9,14,15-hexaazahexacyclo[24.4.1.1~6,10~.0~2,7~.0~11,19~.0~12,16~]dotriaconta-2,4,6,8,10(32),11,13,16,18-nonaen-24-one] | 0.002 | 0.04 | 0.001 | 0.01 | 0.002 | – | – | – | – | –
4 | CN1C[C@H](F)C[C@H]1COc1nc2c3cnc(c(F)c3n1)-c1cc(O)cc3ccc(F)c(c13)CCCC(=O)N[C@]1(C)CCCN2C1 [Example 5, (15R)-22,31-Difluoro-8-(((2S,4R)-4-fluoro-1-methyl-2-pyrrolidinyl)methoxy)-27-hydroxy-15-methyl-3,7,9,11,16-pentaazahexacyclo[19.7.1.1˜2,6˜.1˜11,15˜.0˜5,10˜.0˜25,29˜]hentriaconta-1(28),2(31),3,5,7,9,21,23,25(29),26-decaen-17-one bis(2,2,2-trifluoroacetate)] | 0.001 | 0.471 | 0.001 | 0.062 | 0.023 | – | – | – | – | –
5 | Cc1cc2[nH]ncc2c2c1CCc1cnc(o1)[C@@H](O)[C@@H]1CCCN(C1)c1nc(OC[C@@]34CCCN3C[C@H](F)C4)nc3c(F)c-2ncc13 [Example 373] | – | – | – | – | – | 0.007 | 0.021 | 0.003 | 0.005 | 0.007
6 | O=C1OCCc2c(Cl)cc3[nH]ncc3c2-c2ncc3c(nc(OC[C@@]45CCCN4C[C@H](F)C5)nc3c2F)N2CCOCC(CO1)C2 (stereo partly shown) [Example 220] | 0.006 | 0.816 | 0.003 | 0.064 | 0.0589 | – | – | – | – | –
7 | CN1C[C@H](F)C[C@H]1COc1nc2c3cnc(c(F)c3n1)-c1c(c(Cl)cc3[nH]ncc13)CCOC(=O)O[C@H]1C[C@@]3(CCCN2C3)C1 [Example 320, (1S,3R)-10-chloro-32-fluoro-24-(((2S,4R)-4-fluoro-1-methyl-2-pyrrolidinyl)methoxy)-4,6-dioxa-13,14,19,23,25,27-hexaazaheptacyclo[25.3.1.1~1,3~.1~18,22~.0~9,17~.0~12,16~.0~21,26~]tritriaconta-9,11,14,16,18(32),19,21,23,25-nonaen-5-one] | 0.004 | 0.137 | 0.003 | 0.08 | 0.0138 | – | – | – | – | –
8 | O=C1OC/C=C\c2c(Cl)cc3[nH]ncc3c2-c2ncc3c(nc(OC[C@@]45CCCN4C[C@H](F)C5)nc3c2F)N2CCC[C@H](C2)O1 (single isomer, unassigned) [Example 122] | 0.005 | 0.25 | 0.003 | 0.1 | 0.008 | – | – | – | – | –
9 | Cc1cc2[nH]ncc2c2c1CCOC(=O)O[C@H]1C[C@@]3(CCCN(C3)c3nc(OC[C@@H]4C[C@@H](F)CN4C)nc4c(F)c-2ncc34)C1 [Example 321, (1S,3R)-32-fluoro-24-(((2S,4R)-4-fluoro-1-methyl-2-pyrrolidinyl)methoxy)-10-methyl-4,6-dioxa-13,14,19,23,25,27-hexaazaheptacyclo[25.3.1.1~1,3~.1~18,22~.0~9,17~.0~12,16~.0~21,26~]tritriaconta-9,11,14,16,18(32),19,21,23,25-nonaen-5-one] | 0.005 | 0.186 | 0.002 | 0.162 | 0.025 | – | – | – | – | –
10 | O[C@]12CCOCCc3c(Cl)cc4[nH]ncc4c3-c3ncc4c(nc(OC[C@@]56CCCN5C[C@H](F)C6)nc4c3F)N3CCC[C@@](C3)(C1)C2 [Example 397, (1S,3R)-10-chloro-32-fluoro-24-(((2R,7aS)-2-fluorotetrahydro-1H-pyrrolo[1,2-a]pyrrol-7a(5H)-yl)methoxy)-6-oxa-13,14,19,23,25,27-hexaazaheptacyclo[25.3.1.1~1,3~.1~18,22~.0~9,17~.0~12,16~.0~21,26~]tritriaconta-9,11,14,16,18(32),19,21,23,25-nonaen-3-ol] | – | – | – | – | – | 0.004 | 0.012 | 0.002 | 0.003 | 0.0014
11 | O=C1OCCCc2c(F)cc3[nH]ncc3c2-c2ncc3c(nc(OC[C@@]45CCCN4C[C@H](F)C5)nc3c2F)N2CCOC[C@H](C2)O1 [Example 208, (26S)-18,32-difluoro-4-(((2R,7aS)-2-fluorotetrahydro-1H-pyrrolo[1,2-a]pyrrol-7a(5H)-yl)methoxy)-23,25,28-trioxa-1,3,5,9,14,15-hexaazahexacyclo[24.4.1.1~6,10~.0~2,7~.0~11,19~.0~12,16~]dotriaconta-2,4,6,8,10(32),11,13,16,18-nonaen-24-one] | 0.003 | 0.262 | 0.002 | 0.038 | 0.0207 | – | – | – | – | –
12 | CN1[C@H](COc2nc3c4cnc(c(F)c4n2)-c2c(c(Cl)cc4[nH]ncc24)CCCOC(=O)O[C@@H]2COCCN3C2)C[C@H]2C[C@H]21 [Example 329, (26S)-18-chloro-32-fluoro-4-(((1R,3S,5R)-2-methyl-2-azabicyclo[3.1.0]hexan-3-yl)methoxy)-23,25,28-trioxa-1,3,5,9,14,15-hexaazahexacyclo[24.4.1.1~6,10~.0~2,7~.0~11,19~.0~12,16~]dotriaconta-2,4,6,8,10(32),11,13,16,18-nonaen-24-one] | 0.014 | 0.402 | 0.007 | 0.53 | 0.206 | – | – | – | – | –
13 | C[C@@]12COCCN(C1)c1nc(OC[C@@]34CCCN3C[C@@H](F)C4)nc3c(F)c(ncc13)-c1c(c(Cl)cc3[nH]ncc13)CCCOC(=O)O2 [Example 359, (26S)-18-chloro-32-fluoro-4-(((25,7aS)-2-fluorotetrahydro-1H-pyrrolo[1,2-a]pyrrol-7a(5H)-yl)methoxy)-26-methyl-23,25,28-trioxa-1,3,5,9,14,15-hexaazahexacyclo[24.4.1.1~6,10~.0~2,7~.0~11,19~.0~12,16~]dotriaconta-2,4,6(32),7,9,11,13,16,18-nonaen-24-one] | 0.012 | 0.41 | 0.004 | 0.107 | 0.101 | – | – | – | – | –
14 | Fc1c2ncc3c(nc(OC[C@@]45CCCN4C[C@H](F)C5)nc13)N1CCC[C@@H](Cc3nnc(o3)CCc3c(Cl)cc4[nH]ncc4c3-2)C1 [Example 391, (18S)-9-chloro-31-fluoro-25-(((2R,7aS)-2-fluorotetrahydro-1H-pyrrolo[1,2-a]pyrrol-7a(5H)-yl)methoxy)-33-oxa-5,6,14,15,22,24,26,30-octaazaheptacyclo[25.3.1.1~13,16~.1~18,22~.0~2,10~.0~3,7~.0~23,28~]tritriaconta-1(31),2,4,7,9,13,15,23,25,27,29-undecaene] | – | – | – | – | – | 0.004 | 0.265 | 0.002 | 0.183 | 0.0363
